Experimental data published in patent publication US20110301192A1, “Inhibitors of Cyclin Kinase Inhibitor p21” (The regents of the University of California, priority 2008, published 2011).
Entries after “also recorded” stand apart in the source; their conditions may differ.

Assays:
[1] = test system: kidney cancer cell lines; test: MTT cytotoxic assay in kidney cancer cell lines (FIG. 8); type: cell-based; conditions: kidney cancer cells; 1, 10 or 20 μM in complete media; 48 hr
Protocol: The kidney cancer cells were incubated in serum-free media for 16 hr and treated with vehicle (DMSO) and serum-containing complete media (CM) alone or the indicated compounds (at 1, 10 or 20 μM) in CM. After 48 hr, the MTT assay was performed as described below. The visible absorbance of each well was quantified using a microplate reader.
(§1) A 200 μL aliquot of cells (1×10^3 cells in quiescent media) was added to a 96 well plate and incubated for 18 hr at 37° C. in a humidified incubator containing 5% CO2 in air. After incubation, each condition of small molecule ligands (No. 4, 7, and 10) was added into each well for 48 hr and for synergic assay of Doxorubicin, after incubation for 6 hr with compound No. 10, Doxorubicin dissolved in DMSO was added to each of the 96 wells and incubated for 42 hr. Control cultures were treated with DMSO. After incubation, a 20 μL MTT solution (5 mg/mL in phosphate buffer) was added to each well and the incubation continued for 4 hr, after which time the solution in each well was carefully removed. The blue crystalline precipitate in each well was dissolved in DMSO 200 μL). The visible absorbance at 560 nm of each well was quantified using a microplate reader.

[2] = test system: ACHN and A-498 cells; test: MTT cytotoxic assay (cell viability) in RCC cell lines; type: cell-based, human; conditions: 10, 50 and 100 μM in complete media, 48 hr
Protocol: After 48 hr, the MTT assay was performed as described below. The visible absorbance of each well was quantified using a microplate reader.
ACHN and A498 human RCC cells (from ATCC) were maintained in MEM 1× media supplemented with 10% fetal bovine serum, 2 mM L-glutamine, 1 mM sodium pyruvate, 0.1 mM non-essential amino acid, and 0.75% sodium bicarbonate at 37° C. in a humidified incubator containing 5% CO2 in air.
as §1

[3] = molecular target: T1, p21 (Homo sapiens, UniProt P38936); test: Immunoblotting of p21 protein levels in RCC cells; type: cell-based; conditions: serum-starved ACHN and A-498 cells; 10, 50 and 100 μM; immunoblot
T1 sequence (P38936 whole entry): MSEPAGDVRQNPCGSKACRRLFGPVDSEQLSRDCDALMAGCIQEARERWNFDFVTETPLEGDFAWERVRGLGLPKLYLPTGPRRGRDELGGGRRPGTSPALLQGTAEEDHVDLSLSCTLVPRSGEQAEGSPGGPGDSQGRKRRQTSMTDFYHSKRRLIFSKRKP
From the text: (§2) Chemiluminescence was detected using enhanced ECL.

[4] = test system: p27; test: Immunoblotting of p27 protein levels in RCC cells; type: cell-based, human; conditions: all concentrations examined (10, 50, 100 μM); immunoblot
From the text: as §2

[5] = test system: p57; test: Immunoblotting of p57 protein levels in RCC cells; type: cell-based, human; conditions: all concentrations examined (10, 50, 100 μM); immunoblot
From the text: as §2

[6] = molecular target: T2, GST-tagged p21 recombinant protein (GST-p21) (Homo sapiens, UniProt P38936); test: Two-step OBOC bead screening with recombinant GST-p21; type: binding; conditions: OBOC beads, GST-p21 probe, GST-alone subtraction
T2 construct: purchased ProSpec-Tany TechnoGene Ltd. (Rehovot, Israel)
T2 sequence (P38936 whole entry): as above
Protocol: OBOC beads tethered with small molecule ligands were incubated with recombinant GST-p21 (or GST alone as control) and incubated with anti-GST antibodies conjugated with alkaline phosphatase. Blue beads in stage 2 were discarded and the true positive beads (i.e., clear beads in stage 2 which indicate binding only to p21) were picked up and submitted for MS decoding.
A two-step screening of the small molecule OBOC combinatorial library was performed using GST-tagged p21 recombinant protein (GST-p21) from ProSpec-Tany TechnoGene Ltd. (Rehovot, Israel) (FIG. 2). Screening was conducted in small disposable chromatography columns. Each screening used 25,000-30,000 beads that were first blocked with 0.1% BSA in PBS with 0.1% Tween 20 (PBST). In Stage 1 of the procedure, the beads were incubated with a 1:10,000 dilution of GST-p21, washed, incubated with anti-GST antibody conjugated with alkaline phosphatase (anti-GST-AP), washed, and incubated with the phosphatase substrate 5-bromo-4-chloro-3-indolyl-phosphate (BCIP). Beads became blue and were selected for next step. Stage 2 of the procedure was to remove the false positive beads that are interacting with GST and anti-GST-AP not p21. The beads from Stage 1 were incubated with 8 M guanidine-HCl for removing bound proteins and DMF for removing blue color followed by PBST washing and re-blocking with PBST. And then the beads were incubated with GST alone, washed, incubated with anti-GST-AP, washed, and incubated with the phosphatase substrate BCIP. From this step, the clear beads were considered true positive beads, therefore they were selected and deproteinated with 8 M guanidine-HCl prior to decoding with mass spectrometry.

[7] = test system: ACHN and A-498 cells; test: Apoptosis by PARP cleavage (immunoblot) in RCC cells; conditions: up to 72 h
Protocol: Cells were harvested and immunoblotted with p57, p27, and p21. […] Cells were harvested and immunoblotted with PARP and p21. β-actin is a gel-loading control.
Cells were washed with PBS and lysed in lysis buffer (50 mM HEPES, 1% Triton X-100, 10 mM sodium pyrophosphate, 100 mM sodium fluoride, 4 mM EDTA) at 0° C. Cell lysates were centrifuged (13,000×g, 4° C., 20 min) and the supernatants were electrophoresed and immunoblotted. For immunoprecipitation, cell lysates were incubated with p21 antibody agarose-conjugate overnight at 4° C. and immunoprecipitates were washed five times with lysis buffer. The bound proteins were eluted with SDS sample buffer and elctophoresed and immnoblotted. The membranes were blocked in 5% non-fat dry milk for 1 hr at room temperature, and probed with appropriate antibodies. Membranes were then probed with HRP-tagged anti-mouse or anti-rabbit IgG antibodies diluted 1:5,000-1:15,000 in 5% non-fat dry milk for 1 hr at room temperature. Chemiluminescence was detected using enhanced ECL.

[8] = molecular target: T1, p21; test: p21 stability with cycloheximide or proteasome inhibitors (immunoblot); type: cell-based; conditions: ACHN and A-498 cells; 100 μM; with cycloheximide 10 μg/ml or proteasome inhibitors (lactacystin, LLnL, MG132, 20 μM)
Protocol: ACHN and A-498 cells were incubated in serum-free media for 16 hr and treated with (a) compound 10 (100 μM), cycloheximide (CHX, 10 μg/ml), or compound 10 plus CHX for the indicated time, or (b) three different proteasome inhibitors (lactascystin, 20 μM; LLnL, 20 μM; MG132, 20 μM) for 6 h and followed by incubation of compound 10 (100 μM) for the indicated time. The density ratio of p21/actin is shown. Q refers to cells incubated in serum-free media only; P refers to cells incubated with PDGF only.
as §2

[9] = molecular target: T1, p21; test: p21 ubiquitinylation (immunoprecipitation with p21 antibody, ubiquitin immunoblot); type: cell-based; conditions: ACHN and A-498 cells; 100 μM
Protocol: ACHN and A-498 cells were incubated in serum-free media for 16 hr and treated or not treated with compound 10 (100 μM) for the indicated times. Cells were harvested and immunoprecipitated with p21 antibody-agarose conjugate and immuno-blotted with either p21 or ubiquitin. Ponceau-staining heavy chain of anti-p21-IgG was performed on the same lysate as loading control.
as §2

[10] = test system: ACHN and A-498 cells; test: MTT synergy assay with doxorubicin; type: cell-based, human; conditions: 100 μM, after 6 h doxorubicin 0.1 and 0.25 μM for 42 h
Protocol: (§3) After 6 h, doxorubicin was added (0.1 and 0.25 μM) in serum containing media followed in 42 h by (a) the MTT assay as described below; and (b) immunoblotting with PARP, p21, and β-actin.
as §1

[11] = test system: ACHN and A-498 cells; test: Apoptosis (PARP immunoblot) in combination with doxorubicin; type: cell-based, human; conditions: 100 μM, after 6 h doxorubicin 0.1 and 0.25 μM for 42 h
Protocol: as §3, §2

| SMILES | cell survival / cell viability (MTT assay) [1] | cell survival / cell viability (MTT assay) [2] | p21 protein levels [3] | p27 protein levels [4] | p57 protein levels [5] | binding to p21 [6] | apoptosis as measured by PARP cleavage [7] | also measured |
| --- | --- | --- | --- | --- | --- | --- | --- | --- |
| Cc1ccccc1NC(=O)NC(CC(N)=O)c1ccc2c(c1)nc(-c1cccc(Oc3ccc(C(C)(C)C)cc3)c1)n2CCCN1CCCCC1C (centres unmarked) [LLW15] | dose-dependent inhibition of cell survival; also recorded: decreasing cell viability |  |  |  |  |  |  |  |
| CCN(CC)CCCn1c(-c2cccc(Oc3ccc(C(C)(C)C)cc3)c2)nc2cc(C(CC(N)=O)NC(=O)Nc3ccccc3C)ccc21 (centres unmarked) [LLW33] | dose-dependent inhibition of cell survival; also recorded: decreasing cell viability |  |  |  |  |  |  |  |
| Cc1ccccc1NC(=O)NC(CC(N)=O)c1ccc2c(c1)nc(-c1cccc(Oc3ccc(C(C)(C)C)cc3)c1)n2CCCN1CCCC1 (centres unmarked) [LLW36] | dose-dependent inhibition of cell survival; also recorded: decreasing cell viability |  |  |  |  |  |  |  |
| Cc1ccccc1NC(=O)NC(CC(N)=O)c1ccc2c(c1)nc(-c1cccc(Oc3ccc(C(C)(C)C)cc3)c1)n2CCC1CCCCN1C (centres unmarked) [LLW38] | dose-dependent inhibition of cell survival; also recorded: decreasing cell viability |  |  |  |  |  |  |  |
| Cc1ccccc1NC(=O)NC(CC(N)=O)c1ccc2c(c1)nc(-c1cccc(Oc3ccc(C(C)(C)C)cc3)c1)n2CCCN1CCC(C)CC1 (centres unmarked) [LLW39] | dose-dependent inhibition of cell survival; also recorded: decreasing cell viability |  |  |  |  |  |  |  |
| Cc1ccccc1NC(=O)NC(CC(N)=O)c1ccc2c(c1)nc(-c1cccc(Oc3ccc(C(C)(C)C)cc3)c1)n2CC[C@@H]1CCCN2CCCC[C@H]12 (some centres unmarked) [LLW40] | dose-dependent inhibition of cell survival; also recorded: decreasing cell viability |  |  |  |  |  |  |  |
| Cc1ccccc1NC(=O)NC(CC(N)=O)c1ccc2c(c1)nc(-c1cccc(Oc3ccc(C(C)(C)C)cc3)c1)n2C1CCN(Cc2ccccc2)CC1 (centres unmarked) [LLW42] | dose-dependent inhibition of cell survival; also recorded: decreasing cell viability |  |  |  |  |  |  |  |
| Cc1ccc(C)c(-c2nc3cc(C(CC(N)=O)NC(=O)Nc4ccccc4C(C)(C)C)ccc3n2CCCN2CCCCC2C)c1 (centres unmarked) [No. 4] |  | dose-dependent inhibition of cell survival; also recorded: decreased; also recorded: decreasing cell viability | markedly and specifically inhibited | no affect | no affect | p21-binding | increased |  |
| Cc1ccc(C)c(-c2nc3cc(C(CC(N)=O)NC(=O)Nc4ccccc4C)ccc3n2CCCN2CCCCC2C)c1 (centres unmarked) [No. 7] |  | dose-dependent inhibition of cell survival; also recorded: decreased; also recorded: decreasing cell viability | markedly and specifically inhibited | no affect | no affect | p21-binding | increased |  |
| Cc1ccccc1NC(=O)NC(CC(N)=O)c1ccc2c(c1)nc(-c1c3ccccc3cc3ccccc13)n2CCCN1CCCCC1C (centres unmarked) [No. 10] |  | dose-dependent inhibition of cell survival; also recorded: decreased; also recorded: decreasing cell viability | markedly and specifically inhibited | no affect | no affect | p21-binding | increased | p21 stability [8]: decreases p21 stability via a proteasome-mediated pathway; ubiquitinylation of p21 [9]: causes ubiquitinylation of p21; also recorded: p21 protein is bound by ubiquitin; cell survival in combination with doxorubicin (MTT assay) [10]: synergistic decrease in cell survival; also recorded: synergistic anti-proliferative activity; apoptosis in combination with doxorubicin (PARP immunoblot) [11]: increase in apoptosis |
